In general, IC50 refers to the concentration that inhibits the measured activity by half. By ΔTm is commonly meant the shift of the melting midpoint relative to a reference.

The text below walks through data of paper PMC7667655, “Targeted Covalent Inhibition of Plasmodium FK506 Binding Protein 35” (ACS Medicinal Chemistry Letters, 2020).

Series [1] has as its target T1, FKBP12 (Homo sapiens, UniProt P62942).
T1 construct: 6His-SUMO (N, cleaved yes); made in house; host or cells: E. coli (identical protocol to FBD35, BL21 DE3)
Briefly: Fluorescence polarization competition, FKBP12. The format is binding. On the technique in general: Polarisation of emitted light reports the rotation of a fluorescent probe.

In series [2] the target is T2, FBD35 (PfFKBP35 binding domain) (Plasmodium falciparum, UniProt Q8I4V8).
T2 construct: FKBP35 Q5 -A128; 6His-SUMO (N, cleaved yes); made in house; host or cells: E. coli BL21 DE3
T2 sequence (Q8I4V8 5-128): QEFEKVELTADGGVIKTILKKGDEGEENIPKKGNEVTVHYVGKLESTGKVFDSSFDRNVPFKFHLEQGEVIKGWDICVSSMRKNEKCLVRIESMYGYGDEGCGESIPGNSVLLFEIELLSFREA
Kind of series: Differential scanning calorimetry, FBD35. Conditions: read-out: FBD35 ΔTM. On the technique in general: DSC measures the heat that a sample takes up or gives off during a temperature scan.

The target in series [3] is T1, FKBP12. Kind of series: Differential scanning calorimetry, FKBP12. The series is classed as binding. Particulars: compound 40 µM.
The target of a further series is T3, nLuc-tagged FKBP12 (Homo sapiens, UniProt P62942).
T3 construct: full length Plasmodium falciparum FKBP35 and human FKBP12 DNA were; expressed in transfected cells
T3 sequence (P62942 whole entry): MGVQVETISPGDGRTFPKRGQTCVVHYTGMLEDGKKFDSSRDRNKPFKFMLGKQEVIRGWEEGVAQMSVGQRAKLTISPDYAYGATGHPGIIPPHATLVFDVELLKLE
Kind of series: NanoBRET cellular target engagement, nLuc-FKBP12. The format is cell-based.

In series [4] the test system is NF54 P. falciparum parasites. Kind of series: P. falciparum strain NF54 growth-inhibition assay. The series is classed as cell-based. Particulars: Plasmodium falciparum; luciferase reporter NF54 line, 72 h. On the procedure:
Figure 6 P. falciparum strain NF54 growth-inhibition assay. […] Proliferation was measured by luminescence after a complete life-cycle and normalized to DMSO (100%) and chloroquine (100 nM, 0%). (B) Structural differences between synthetic ligands and compound IC50s (μM).
Substrate and Extracellular NanoLuc® Inhibitor (Promega, cat. N2160) were diluted at 1:166 and 1:500, respectively, in Opti -MEM I Reduced Serum Media. 25 µL of this solution was added to each well and plate was read immediately using an EnVision Multimode Plate Reader (PerkinElmer). The BRET ratio was calculated using the following formula:
BRET ratio = acceptorsample – acceptorno tracer control donorsample donorno tracer control
NanoBRET Target Engagement Assay (384-well)
HEK293T cells stably expressing either nLuc-FKBP12 or nLuc-FKBP35 were plated at 0.2×10^6 cells/mL in white, clear -bottom 384-well plates (Sigma Aldrich) in Opti -MEM I Reduced Serum Media (ThermoFisher Scientific) using a Mutidrop Combi Reagent Dispenser (ThermoFisher Scientific). Cells were incubated overnight at 37 °C, 5% CO 2. Using a Tecan D300e, the Rap-Gly-BDP tracer was added to cells to 1 µM. Plates were shaken at 700 RPM on an orbital plate shaker and incubated at 37 °C, 5% CO 2 for 10 minutes. Test compounds were added at the indicated concentrations using a Tecan D300e. Plates were shaken at 700 RPM on an orbital plate shaker and incubated at 37 °C, 5% CO 2 for 2 hours. NanoBRET Nano -Glo Substrate and Extracellular NanoLuc® Inhibitor (Promega, cat. N2160) were diluted at 1:166 and 1:500, respectively, in Opti-MEM I Reduced Serum Media. 10 µL of this solution was added to each well and plate was read immediately using an EnVision Multimode Plate Reader (PerkinElmer). The BRET ratio was calculated using the above formula.
Parasite Culture and Inhibition
NF54 P. falciparum parasites constitutively expressing Renilla luciferase (RLuc) and Blasticidin-S deaminase under the PfHsp86 5’ and PfHRP2 3‘ regulatory sequences integrated in the cg6 chromosomal locus 4 were maintained continuous ly in media consisting of human erythrocytes at 2% haematocrit (O+) resuspended in RPMI 1640 (Gibco® 31800022) supplemented with 5% Albumax (Gibco® 11021045; complete medium) and 2.5 µg/mL of Blasticidin (RPI Corp B12150-0.1) in a gas mixture consisting of 5% CO2, 1% O2, and 94% N2 at 37 °C (Trager and Jensen 2005).
Parasitemia was determined every 48 h through microscopic examination of thin blood smears fixed in methanol, stained with 10% Giemsa solution, and sub-cultured to 0.5-1% parasitaemia.
Compound susceptibility assays
(§1) In 96-well round-bottom plates, sorbitol -synchronized cultures of ring-stage NF54 P. falciparum parasites were established in triplicate and treated with varying concentrations of the inhibitors (25-0.0038 μM) serially diluted in complete medium. Parasite proliferation rates were analyzed after 72 h using the Renilla-Glo Luciferase Assay, and luminescence was measured using the GloMax® Discover Microplate Reader. EC 50 values were obtained from corrected dose-response curves using GraphPad Prism (version 5; GraphPad Software). Data represent the mean % luminescence relative to 5% DMSO-treated (vehicle, 100% growth) and 100 nM chloroquine-treated (no growth) controls.
(§2) In black, clear-bottom 96-well plates (No. 3904 Corning Life Sciences), HEK293T cells were plated at 2x10^5 cells/mL in DMEM high glucose, pyruvate media (ThermoFisher Scientific, cat. 11995073) supplemented with 10% FBS and 1% pen -strep (100 μL final volume). Cells were incubated overnight at 37°C, 5% CO2. Using a Tecan D300e digital dispenser, cells were dosed in triplicate […]
concentration, 100 mM stock in DMSO) and Carfilzomib (10 µM to 4.6 nM final concentration, 10 mM stock in DMSO) normalizing DMSO to 0.25%. Cells were then incubated at 37 °C, 5% CO2 for 72 hours. Following incubation, cells were treated with 70 µL CellTiter-Glo® Luminescent Cell […]
For orientation: In a reporter assay the amount or activity of a reporter protein is the signal.

Series [5] is described as follows: Plasma stability assay, mouse. The format is in vitro ADME. Particulars: percent remaining, 1 µM, 37 °C, 5 hours. The method, then: as §1, §2
concentration, 100 mM stock in DMSO) and Carfilzomib (10 µM to 4.6 nM final concentration, 10 mM stock in DMSO) normalizing DMSO to 0.25%. Cells were then incubated at 37 °C, 5% CO2 for 72 hours. Following incubation, cells were treated with 70 µL CellTiter-Glo® Luminescent Cell Viability Assay Reagent (Promega, cat. G7570) and incubated in the dark at room temperature for 30 minutes. Plates were read using an EnVision Multimode Plate Reader (PerkinElmer). Cell viability data was normalized to DMSO controls and analyzed in GraphPad Prism 8 by fitting the data to “[Inhibitor] vs. normalized response – variable slope” model to obtain the curves.
Each compound was prepared in duplicate at 1 µM final concentration (0.2% DMSO) in human or mouse plasma (Aldrich). Samples were incubated at 37 °C for 5 hours with mixing at 350 rpm on an orbital shaker. Aliquots of each sample were taken at time zero and following 5 hours. Each sample was quenched by adding acetonitrile in a 3:1 ratio and further diluting with 50 µl of PBS.
After quenching, samples were centrifuged to pellet precipitated partic ulates and an aliquot of supernatant was diluted 1:1 with water. The resulting solution was analyzed by UPLC -MS/MS with compounds detected by MRM detection on a triple quadrupole mass spectrometer. The ratio of compound peak areas at 0 and 5 hours were use d to calculate the percent remaining.

T1 sequence (P62942 whole entry): as above

`C=CC(=O)Nc1cccc([C@@H](CCc2ccc(OC)c(OC)c2)OC(=O)[C@@H]2CCCCN2C(=O)C(=O)C(C)(C)CC)c1` [1a]: the IC50 at FKBP12 [1] is 132 nM; against nLuc-tagged FKBP12 it was 481 nM; in series [4], 1400 nM. In addition, the ΔTm at 40 µM came out at 13.4 °C in series [2] and 5.6 °C on FKBP12 [3]. Besides, in series [5], the “Plasma Stability (mouse)” value came to 48%.

On to `CCC(=O)Nc1cccc([C@@H](CCc2ccc(OC)c(OC)c2)OC(=O)[C@@H]2CCCCN2C(=O)C(=O)C(C)(C)CC)c1` [1b], for which the IC50 at FKBP12 [1] is 58 nM; against nLuc-tagged FKBP12, 313 nM; in series [4], 1900 nM. The results for the ΔTm at 40 µM (in series [2]; at FKBP12 [3]) were 2.8 °C and 6.8 °C, respectively. Further, the “Plasma Stability (mouse)” value in series [5] turned out to be 18%.

Take `C=CC(=O)Nc1ccccc1[C@@H](CCc1ccc(OC)c(OC)c1)OC(=O)[C@@H]1CCCCN1C(=O)C(=O)C(C)(C)CC` [1c]: the IC50 came to 423 nM on FKBP12 [1] and 1900 nM in series [4]. Moreover, the thermal shift (ΔTm) at 40 µM was determined as 9.6 °C in series [2] and 3.2 °C on FKBP12 [3]. In series [5], the “Plasma Stability (mouse)” value is given as 31%.

In the case of `C=CC(=O)OCC(C)(C)C(=O)C(=O)N1CCCC[C@H]1C(=O)O[C@H](CCc1ccc(OC)c(OC)c1)c1ccccc1` [2c], the IC50 at FKBP12 [1] came out at 166 nM; on nLuc-tagged FKBP12, 601 nM; in series [4], 13000 nM. For the same molecule, the ΔTm at 40 µM was found to be 14.5 °C in series [2] and 5.2 °C at FKBP12 [3]. The “Plasma Stability (mouse)” value in series [5] turned out to be 0%.
